In ChEMBL document CHEMBL1142074, “In vitro activities of cloxyquin (5-chloroquinolin-8-ol) against Mycobacterium tuberculosis” (2007):

Assays:
Assay type in all cases: functional
[1] = test system: Mycobacterium tuberculosis; assay: Antimycobacterial activity against pyrazinamide-resistant Mycobacterium tuberculosis H37Rv ATCC 35828 by microplate alamar blue assay
[2] = test system: Mycobacterium tuberculosis; assay: Antimycobacterial activity against thiacetazone-resistant Mycobacterium tuberculosis H37Rv ATCC 35829 by microplate alamar blue assay
[3] = test system: Mycobacterium tuberculosis; assay: Antimycobacterial activity against ethionamide-resistant Mycobacterium tuberculosis H37Rv ATCC 35830 by microplate alamar blue assay
[4] = test system: Mycobacterium tuberculosis; assay: Antimycobacterial activity against ethambutol-resistant Mycobacterium tuberculosis H37Rv ATCC 35837 by microplate alamar blue assay
[5] = test system: Mycobacterium tuberculosis; assay: Antimycobacterial activity against cycloserine-resistant Mycobacterium tuberculosis H37Rv ATCC 35826 by microplate alamar blue assay
[6] = test system: Mycobacterium tuberculosis; assay: Antimycobacterial activity against kanamycin-resistant Mycobacterium tuberculosis H37Rv ATCC 35827 by microplate alamar blue assay

Measured: MIC

Oc1ccc(Cl)c2cccnc12 [CLOXYQUIN]
0.125 µg/mL: [1] | [2] | [3] | [4] | [5] | [6]
